From BindingDB's records for doi:10.1021/jm000023o (Cocensys, 2000)

What was measured:
[1] = Concentration required for 50% Inhibition of responses at cloned NR1A/2AB N-methyl-D-aspartate (NMDA) expressed in Xenopus oocytes
[2] = as above; remark: listed apart in the source

## Oc1ccc(C#CCN2CCC(Cc3ccccc3)CC2)cc1 [4-[3-(4-Benzyl-piperidin-1-yl)-prop-1-ynyl]-phenol]
[1]
  IC50: 0.1 µM

## C(#Cc1ccc2cc[nH]c2c1)CCN1CCC(Cc2ccccc2)CC1 [6-[4-(4-Benzyl-piperidin-1-yl)-but-1-ynyl]-1H-indole]
[2]
  IC50: 6.1 µM
